Measurements taken from US7756643B2, “Method for determining the biological effect and/or activity of at least one drug, chemical substances and/or pharmaceutical composition based on their effect on the methylation status of DNA” (Epigenomics AG, priority 2001, dated 2010).
Where no end group is shown, it is not given here.

Key:
T cells = conditions: through down-regulation of Fas ligand (FasL); cited from earlier work
CpGs of the Fas-L gene = test: Peptide library screening: methylation status of CpGs in a T-cell line; format: cell-based; conditions: 10 days, versus untreated control
Procedure: A peptide library was prepared in a 96-well culture plate which contained overlapping peptide fragments derived from the peptide sequence of human serum albumine (HSA). As positive controls, each of vasoactive intestinal peptide (VIP) and pituitary adenylate cyclase-activating polypeptide (PACAP) was added in one of the wells.
A T-cell line (example?) was incubated together with the peptides and VIP or PACAP. After 10 days, the cells of the VIP/PACAP and HSA peptide treated as well as untreated control cell line cultures were collected by centrifugation and the chromosomal DNA was prepared using QIAamp DNA Mini Kit as recommended by the manufacturer (Quiagen, Hilden, Germany).
Subsequently, the chromosomal DNAs were bisulphite treated as published, for example, according to Olek et al. 6 different multiplex PCR reactions were performed on the 3 bisulphite DNA samples (untreated control, HSA and VIP/PACAP treated samples) using Cy5-labelled primer. The products of the methylation specific PCR reactions performed on the same DNA samples were combined. These complex mixtures of 64 PCR products derived from the three DNA samples were comparatively hybridised onto oligo micro arrays representing 256 CpG and the methylation statuses of the CpGs were analysed according to a method described in WO 99/28498.

Substance | protection of T cells from activation-induced cell death (T cells) | methylation status of CpGs of the Fas-L gene (CpGs of the Fas-L gene)
vasoactive intestinal peptide (HSDAVFTDNYTRLRKQMAVKKYLNSILN; ends and bridges not checked; UniProt P01282 125-152, looked up) [VIP, positive control peptide] | protect T cells from activation-induced cell death | significantly changed
pituitary adenylate cyclase-activating polypeptide (HSDGIFTDSYSRYRKQMAVKKYLAAVLGKRYKQRVKNK; ends and bridges not checked; UniProt P18509 132-169, looked up) [PACAP, positive control peptide] | protect T cells from activation-induced cell death | significantly changed
